According to US4683331A, “Omega-(2,4-dihalobiphenylyl) oxo alkanoic acids” (Spofa spojene podniky pro zdravotnickou, priority 1984, dated 1987):

Columns and labels:
Freund adjuvans edema = test: Freund adjuvans edema; format: in vivo; settings: single dose
Description: (§1) Anti-inflammatory activity is measured according to
(§2) Carrageenin edema and Freund adjuvans edema. The assay for
(§3) hours after administration of each compound. The assay for Free
adjuvans edema was performed according to Z. Horakova and J.
Grimova, Ceskosl. Fys. Vol. 17 (1968), p. 137. Single oral doses
The edema was evaluated 1, and 24 hours
(§4) after administration of each compound. All of the tabulated
(§5) values are statistically significant (p < 0.05) except for those

Carrageenin edema [1] = test: Carrageenin edema; format: in vivo; settings: single dose
Description: as §1, §2
Carrageenin edema was performed according to J. Winter, Proc.
Soc. Exptl. Biol. Med. Vol. 111 (1962), p 544. Single oral doses
Edema size was evaluated 1, 24, and 48
as §3, §4, §5

Carrageenin edema [2] = settings: J. Pharm. Sci. Vol. 66 (1977); cited from earlier work
adjuvant arthritis = settings: J. Pharm. Sci. Vol. 66 (1977); cited from earlier work
in vivo = settings: acute (short-term) toxicity
[3] = 10 mg/kg po, bracketed values not significant
[4] = 25 mg/kg po, bracketed values not significant
[5] = 100 mg/kg po, bracketed values not significant

| Compound | Adjuvans % inhibition 1 hr (Freund adjuvans edema; 10 mg/kg po) [%] | Adjuvans % inhibition 24 hr (Freund adjuvans edema; [3]) [%] | Adjuvans % inhibition 1 hr (Freund adjuvans edema; 25 mg/kg po) [%] | Adjuvans % inhibition 24 hr (Freund adjuvans edema; [4]) [%] | Adjuvans % inhibition 1 hr (Freund adjuvans edema; 100 mg/kg po) [%] | Adjuvans % inhibition 24 hr (Freund adjuvans edema; [5]) [%] | Carrageenin % inhibition 1 hr (Carrageenin edema [1]; [4]) [%] | Carrageenin % inhibition 24 hr (Carrageenin edema [1]; [4]) [%] | Carrageenin % inhibition 1 hr (Carrageenin edema [1]; 100 mg/kg po) [%] | Carrageenin % inhibition 24 hr (Carrageenin edema [1]; 100 mg/kg po) [%] | Carrageenin % inhibition 48 hr (Carrageenin edema [1]; 100 mg/kg po) [%] | activity for Carrageenin edema (Carrageenin edema [2]) | activity for adjuvant arthritis (in words) (adjuvant arthritis) | LD50 (in vivo) [mg/kg] | Carrageenin % inhibition 48 hr (Carrageenin edema [1]; 25 mg/kg po) [%] | Adjuvans % inhibition 1 hr (Freund adjuvans edema; 20 mg/kg po) [%] | Adjuvans % inhibition 24 hr (Freund adjuvans edema; 20 mg/kg po) [%] | percent inhibition for adjuvant arthritis (adjuvant arthritis) [%] | Adjuvans % inhibition 1 hr (Freund adjuvans edema; 50 mg/kg po) [%] | Adjuvans % inhibition 24 hr (Freund adjuvans edema; 50 mg/kg po) [%] |
| --- | --- | --- | --- | --- | --- | --- | --- | --- | --- | --- | --- | --- | --- | --- | --- | --- | --- | --- | --- | --- |
| O=C(O)CCC(=O)c1ccc(-c2ccccc2)cc1 [Compound 4] | 27 | 8 | 31 | 9 | 54 | 7 | 40 | 14 | 46 | 38 | 0 | – | – | – | – | – | – | – | – | – |
| O=C(O)CCC(=O)c1ccc(-c2ccc(F)cc2)cc1 [4'-F-fenbufen] | – | – | – | – | – | – | – | – | – | – | – | 1.7 | no activity | – | – | – | – | – | – | – |
| CC(CC(=O)c1ccc(-c2ccc(Cl)cc2Cl)cc1)C(=O)O (stereo not drawn) [Compound 1] | 37 | 38 | 40 | 46 | 45 | 55 | 27 | 54 | 35 | 73 | 58 | – | – | 450 | 58 | – | – | – | – | – |
| CC(CC(=O)c1ccc(-c2ccc(F)cc2)cc1)C(=O)O (stereo not drawn) [Compound 3] | 37 | 31 | – | – | – | – | 16 | 21 | 33 | 34 | – | – | – | 500 | – | 42 | 39 | – | – | – |
| O=C(O)CCC(=O)c1ccc(-c2ccc(Cl)cc2)cc1 [4'-Cl-fenbufen] | – | – | – | – | – | – | – | – | – | – | – | no activity | – | – | – | – | – | 61 | – | – |
| CC(CC(=O)c1ccc(-c2ccc(F)cc2F)cc1)C(=O)O (stereo not drawn) [Compound 2] | – | – | 56 | 32 | – | – | 30 | 61 | 44 | 66 | 45 | – | – | 500 | 42 | – | – | – | 53 | 46 |
